The values below come from patent publication US9718790B2, “Triazine derivative and pharmaceutical composition having an analgesic activity comprising the same” (SHIONOGI & CO., LTD., priority 2010, dated 2017).

A short description of series [1]: Bioavailability (BA) test. Format: in vivo. The following applies: plasma; mice or SD rats, oral vs intravenous AUC. As to the method: (1) Animals: Mice or SD rats were used
(2) Breeding conditions: Mice or SD rats were allowed to freely take solid food and sterilized tap water.
(3) Dose and grouping: orally or intravenously administered at a predetermined dose; grouping was as follows (Dose depends one the compound) • Oral administration: 0.3 to 30 mg/kg (n=2 to 3) • Intravenous administration: 0.5 to 10 mg/kg (n=2 to 3)
(4) Preparation of dosing solution: for oral administration, in a solution or a suspension state: for intravenous administration, in a solubilized state
(5) Administration method: in oral administration, forcedly administer into ventriculus with oral probe; in intravenous administration, administer from caudal vein with a needle-equipped syringe
(6) Evaluation items: blood was collected over time, and the plasma concentration of drug was measured by LC/MS/MS
(7) Statistical analysis: regarding the transition of the plasma concentration or the present compound, the area under the plasma concentration-time curve (AUC) was calculated by non-linear least squares program WinNonlin (Registered trade name), and the bioavailability (BA) was calculated the AUCs of the oral administration group and intravenous administration group

The target of the next series is CYP1A2 (Homo sapiens (Human), UniProt P05177). Briefly: CYP inhibition test, pooled human hepatic microsome, 7-ethoxyresorufin O-deethylation. It is filed as in vitro ADME. As to conditions: substrate ethoxyresorufin. On the procedure:
(§1) Using commercially available pooled human hepatic microsome, and employlng, as markers, 7-ethoxyresorufin O-deethylation (CYP1A2), tolbutamide methyl-hydroxylation (CYP2C9), mephenyloin 4′-hydroxylation (CYP2C19), dextromethorphan O-demethylation (CYP2D6), and terfenedine hydroxylation as typical substrate metabolism reactions of human main five CYP enzyme forms (CYP1A2, 2C9, 2C19, 2D6, 3A4), an inhibitory degree of each metabolite production amount by a test compound was assessed.
(§2) The reaction conditions were as follows: substrate, 0.5 μmol/L ethoxyresorufin (CYP1A2), 100 μmol/L tolbutamide (CYP2C9), 50 μmol/L S-mephenitoin (CYP2C19), 5 μmol/L dextromethorphan (CYP2D6), 1 μmol/L terfenedine (CYP3A4) reaction time, 15 minutes; reaction temperature, 37° C; enzyme, pooled human hepatic microsome 0.2 mg protein/mL; test drug concentration, 1.0, 5.0, 10, 20 μmol/L (four points).
(§3) Each five kinds of substrates, human hepatic microsome, or a test drug in 50 mmol/L Hepes buffer as a reaction solution was added to a 96-well plate at the composition as described above, NADPH, as a cofactor was added to initiate metabolism reactions as markers and, after the incubation at 37° C. for 15 minutes, a methanol/acetonitrile=1/1 (v/v) solution was added to stop the reaction. After the centrifugation at 3000 rpm for 15 minutes, resorufin (CYP1A2 metabolite) in the supernatant was quantified by a fluorescent multilabel counter and tributamide hydroxide (CYP2CP metabolite), mephenyloin 4′ hydroxide (CYP2C19 metabolite), […] (CYP2D6 metabolite), and terfenadine alcohol (CYP3A4 metabolite) were quantified by LC/MS/MS.

The target in another series is human P2X3 receptor (Homo sapiens (Human), UniProt P56373). Briefly: Evaluation of human P2X3 receptor inhibitory activity (Fluo-3 calcium fluorescence, FDSS 3000, ATP stimulation).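 Also: stimulus was 50 nM ATP with fluorescence followed for 3 min, and the response per well was peak post-ATP fluorescence divided by the reading at measurement start.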 It is filed as cell-based.
Chain of human P2X3 receptor (P56373 whole entry): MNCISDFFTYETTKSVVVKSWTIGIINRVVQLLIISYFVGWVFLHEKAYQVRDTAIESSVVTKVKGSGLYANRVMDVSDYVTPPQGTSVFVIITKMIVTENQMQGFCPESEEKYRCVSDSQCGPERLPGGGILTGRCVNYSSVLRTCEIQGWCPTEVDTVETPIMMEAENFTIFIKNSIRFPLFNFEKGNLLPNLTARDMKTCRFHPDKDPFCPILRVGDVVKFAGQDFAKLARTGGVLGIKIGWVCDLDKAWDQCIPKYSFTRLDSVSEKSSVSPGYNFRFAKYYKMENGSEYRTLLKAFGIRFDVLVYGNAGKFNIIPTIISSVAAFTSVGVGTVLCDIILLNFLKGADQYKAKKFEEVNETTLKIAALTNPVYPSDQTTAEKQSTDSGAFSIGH
For the next series, the target named is rat P2X3 receptor (Rattus norvegicus (Rat), UniProt P49654). The series is described as follows: Evaluation of rat P2X3 receptor inhibitory activity in the presence of rat serum albumin (1% RSA). It is filed as cell-based. As to the method: Rat P2X3 receptor gene (GenBank accession number NM_031075) was expressed in C6BU-1 cell. The cells stably expressing rat P2X3 were seeded in a 96-well microtiter plate at a :concentration of 8000 cells/well and cultured in the medium (8.3% fetal bovine serum, 8.3% horse serum, 1% antibiotic and antifungal in DMEM) for one day at 37° C. under 5% carbon dioxide atmosphere. In transiently expressing system, the C6BU-1 cells were seeded in a 96-well microtiter plate at a concentration of 2500 cells/well and cultured in the medium for one day at 37° C. under 5% carbon dioxide atmosphere. The plasmid was transfected into the cells using transfection reagent FuGENE6 (Roche). The transfected cells were cultured in the medium for one day at 37° C. under 5% carbon dioxide atmosphere. […] Measurement of fluorescence intensity by FDSS 3000 was started, and 40 μL of DMSO solutions containing 1% RSA (final concentrations) and different concentrations of the test compound as prepared by dilution with dilution buffer (20 mM HEPES, 137 mM NaCl, 2.7 mM KCl, 0.9 mM MgCl2, 5.0 mM CaCl2, 5.0 mM D-glucose, 2.5 mM probenecid, 0.1% Pluronic F-127, pH 7.5) were dispensed to each well through the built-in automatic dispenser. Five minutes after, 50 nM ATP solution (50 μL) prepared by dilution with the dilution buffer was dispensed through the built-in automatic dispenser, and the measurement of fluorescence intensity was continued for 3 min. For each well, the specific maximum fluorescence intensity was calculated as the ratio of the maximum fluorescence intensity after addition of the ATP solution to the fluorescence intensity at the starting of the measurement. […] FDSS software (Hamamatsu Photonics K.K.) was used for calculation of the specific maximum fluorescence intensity. IC50 was calculated using Microsoft Excel (Microsoft Corporation) and XLfit (idbs Ltd.).
Chain of rat P2X3 receptor (P49654 whole entry): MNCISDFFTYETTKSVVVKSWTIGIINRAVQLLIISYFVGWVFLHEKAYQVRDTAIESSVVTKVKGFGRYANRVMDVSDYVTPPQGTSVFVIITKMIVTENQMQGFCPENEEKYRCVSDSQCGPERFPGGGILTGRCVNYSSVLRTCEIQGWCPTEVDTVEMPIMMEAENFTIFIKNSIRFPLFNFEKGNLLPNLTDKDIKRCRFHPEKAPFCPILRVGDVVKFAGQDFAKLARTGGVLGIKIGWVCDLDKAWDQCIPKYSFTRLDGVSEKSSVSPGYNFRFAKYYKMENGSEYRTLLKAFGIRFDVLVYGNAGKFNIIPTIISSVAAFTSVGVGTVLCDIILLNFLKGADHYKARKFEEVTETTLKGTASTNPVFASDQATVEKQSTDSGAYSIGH

The next series has as its system human liver microsomes. The series is described as follows: Metabolism stability test with pooled human hepatic microsomes. Format: in vitro ADME. As to conditions: compound concentration 0.5 μmol/L, 30 minutes, NADPH. As to the method:
Using commercially available pooled human hepatic microsomes, a test compound is reacted for a constant time, a remaining rate is calculated by comparing a reacted sample and an unreacted sample, thereby, a degree of metabolism in liver is assessed.
A reaction was performed (oxidative reaction) at 37° C. for 0 minute or 30 minutes in the presence of 1 mmol/L NADPH in 0.2 mL of a buffer (50 mmol/L tris-HCl pH 7.4, 150 mmol/L potassium chloride, 10 mmol/L magnesium chloride) containing 0.5 mg protein/mL of human liver microsomes. After the reaction, 50 μL of the reaction solution was added to 100 μL of a methanol/acetonitrile=1/1 (v/v), mixed and centrifuged at 3000 rpm for 15 minutes. The test compound in the supernatant was quantified by LC/MS/MS, and a remaining amount of the test compound after the reaction was calculated, letting a compound amount at 0 minute reaction time to be 100%.

A further series addresses CYP3A4 (Homo sapiens (Human), UniProt P08684). The series is described as follows: CYP inhibition test, pooled human hepatic microsome, terfenedine hydroxylation. It is filed as in vitro ADME. As to conditions: substrate terfenedine. As to the method:
as §1, §2, §3

[2] abbreviates: human P2X3 receptor, Test Example 1.

Chain of CYP1A2 (P05177 whole entry): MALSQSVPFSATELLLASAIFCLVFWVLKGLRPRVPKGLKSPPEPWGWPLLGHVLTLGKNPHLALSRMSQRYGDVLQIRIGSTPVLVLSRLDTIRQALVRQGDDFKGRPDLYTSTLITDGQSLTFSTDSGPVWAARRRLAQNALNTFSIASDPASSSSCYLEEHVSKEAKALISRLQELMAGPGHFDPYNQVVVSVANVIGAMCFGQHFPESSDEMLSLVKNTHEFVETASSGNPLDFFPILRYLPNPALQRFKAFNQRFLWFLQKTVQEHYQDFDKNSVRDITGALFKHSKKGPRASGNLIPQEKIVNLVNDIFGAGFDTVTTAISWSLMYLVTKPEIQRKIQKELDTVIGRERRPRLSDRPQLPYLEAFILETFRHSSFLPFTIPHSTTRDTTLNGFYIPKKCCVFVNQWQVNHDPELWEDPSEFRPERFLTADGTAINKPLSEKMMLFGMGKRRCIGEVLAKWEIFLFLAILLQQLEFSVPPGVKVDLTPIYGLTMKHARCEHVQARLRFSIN
Chain of CYP3A4 (P08684 whole entry): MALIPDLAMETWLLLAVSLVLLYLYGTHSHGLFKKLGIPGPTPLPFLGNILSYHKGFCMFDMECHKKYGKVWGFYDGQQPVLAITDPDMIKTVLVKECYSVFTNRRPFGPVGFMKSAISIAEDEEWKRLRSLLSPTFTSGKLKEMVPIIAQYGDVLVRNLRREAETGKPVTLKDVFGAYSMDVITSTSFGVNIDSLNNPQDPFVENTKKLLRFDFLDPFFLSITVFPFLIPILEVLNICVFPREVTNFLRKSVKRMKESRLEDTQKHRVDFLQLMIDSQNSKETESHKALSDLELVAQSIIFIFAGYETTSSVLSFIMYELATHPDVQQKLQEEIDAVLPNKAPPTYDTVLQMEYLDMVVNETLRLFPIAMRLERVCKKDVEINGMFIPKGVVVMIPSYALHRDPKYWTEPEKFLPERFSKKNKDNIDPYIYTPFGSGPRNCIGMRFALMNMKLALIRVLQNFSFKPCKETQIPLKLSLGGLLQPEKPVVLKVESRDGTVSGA

By bioavailability is commonly meant dose-corrected exposure relative to a reference, in per cent. Read a low bioavailability as little systemic uptake. Usually IC50 stands for the concentration that inhibits the measured activity by half. `O=c1[nH]/c(=N\c2ccc(Oc3ccon3)cc2)n(Cc2ccc(Cl)cc2)c(=O)n1CC(CO)CO` [Compound I-2291]: the bioavailability in series [1] was 83%. Besides, the IC50 was over 20000 nM against CYP1A2, 4 nM at human P2X3 receptor (setting [2]) and over 20000 nM on CYP3A4. Also, the rat P2X3 (+RSA) IC50 on rat P2X3 receptor worked out at 20 nM. The compound also gave a remaining rate in the series with human liver microsomes of 94%.
As for `CCn1c(=O)[nH]/c(=N\c2ccc(Oc3ccnc(C(=O)O)c3)cc2)n(Cc2ccc(Cl)cc2)c1=O` [Compound I-1788], in series [1], the bioavailability was determined as 31%. For the same compound, the concentration for half-maximal inhibition (IC50) at CYP1A2 is over 20000 nM; on human P2X3 receptor (C6BU-1 cells stably expressing human P2X3 receptor, Fluo-3 fluorescence, FDSS 3000), 5 nM; against CYP3A4 it was over 20000 nM. The rat P2X3 (+RSA) IC50 at rat P2X3 receptor was determined as 59 nM. This compound gave a remaining rate in the series with human liver microsomes of over 99.9%.
Consider `C[C@@H](Cn1c(=O)[nH]/c(=N\c2ccc(OCC3CC3)cc2)n(Cc2ccc(Cl)cc2)c1=O)C(=O)O` [Compound I-0837], for which, in series [1], the bioavailability is 46%. Further, the results for the IC50 against CYP1A2, at human P2X3 receptor (setting [2]) and on CYP3A4 were over 20000 nM, 17 nM and over 20000 nM, respectively. At rat P2X3 receptor, the rat P2X3 (+RSA) IC50 is 44 nM. In the series on human liver microsomes, this compound registered a remaining rate of 99%.
